HELM strings list units from the 5' end as sugar, base in round brackets, then linkage (d deoxyribose, r ribose, m 2'-O-methyl, p phosphodiester). Strings are as the collection lists them; they lack the last nucleoside at the 3' end of the tested compound. [moe] = 2'-O-(2-methoxyethyl) (MOE); [sp] = phosphorothioate linkage; [m5C] = 5-methylcytosine
Molecular target: UBE3A-ATS
Test: mouse, dose not given
Settings: ASO

Row | Substance | 3 h FOB score
1 | RNA1{[moe]([m5C])[sp].[moe](T)p.[moe](G)p.[moe]([m5C])p.d(T)[sp].d(T)[sp].d([m5C])[sp].d(A)[sp].d([m5C])[sp].d([m5C])[sp].d(A)[sp].d(T)[sp].d(T)[sp].d(T)[sp].[moe](T)p.[moe](G)p.[moe](A)p.[moe]([m5C])[sp].[moe]([m5C])}$$$$ (last 3' nucleoside missing) | 0 score 0-7
2 | RNA1{[moe](A)[sp].[moe](T)p.[moe](G)p.[moe](G)p.[moe](G)p.d(A)[sp].d(G)[sp].d([m5C])[sp].d(T)[sp].d([m5C])[sp].d(T)[sp].d(G)[sp].d(G)[sp].d(A)[sp].d(A)[sp].[moe](A)p.[moe](A)p.[moe]([m5C])[sp].[moe](A)}$$$$ (last 3' nucleoside missing) | 4 score 0-7
3 | RNA1{[moe](G)[sp].[moe](T)p.[moe](G)p.[moe](T)p.[moe](G)p.[moe](T)p.d(T)[sp].d(T)[sp].d(T)[sp].d(T)[sp].d([m5C])[sp].d([m5C])[sp].d(A)[sp].d(T)[sp].d(T)[sp].d(T)[sp].[moe](T)p.[moe](T)[sp].[moe]([m5C])}$$$$ (last 3' nucleoside missing) | 0 score 0-7
4 | RNA1{[moe](G)[sp].[moe](T)p.[moe](G)p.[moe](A)p.[moe](G)p.[moe]([m5C])[sp].d(T)[sp].d(A)[sp].d(T)[sp].d([m5C])[sp].d(T)[sp].d(G)[sp].d(T)[sp].d(A)[sp].[moe]([m5C])p.[moe](A)[sp].[moe](A)}$$$$ (last 3' nucleoside missing) | 4.7 score 0-7
5 | RNA1{[moe]([m5C])[sp].[moe](T)p.[moe](T)p.[moe](A)p.[moe](G)p.d(G)[sp].d([m5C])[sp].d(A)[sp].d(A)[sp].d(T)[sp].d(G)[sp].d(G)[sp].d(A)[sp].d([m5C])[sp].d(T)[sp].[moe](T)p.[moe](A)p.[moe](G)[sp].[moe](T)}$$$$ (last 3' nucleoside missing) | 1 score 0-7
6 | RNA1{[moe](G)[sp].[moe]([m5C])p.[moe](A)p.[moe](T)p.[moe](A)p.[moe]([m5C])[sp].d([m5C])[sp].d([m5C])[sp].d(A)[sp].d(G)[sp].d(G)[sp].d(G)[sp].d(T)[sp].d(A)[sp].[moe](G)p.[moe](G)[sp].[moe](A)}$$$$ (last 3' nucleoside missing) | 1 score 0-7
7 | RNA1{[moe]([m5C])[sp].[moe](T)p.[moe](T)p.[moe]([m5C])p.[moe](A)p.[moe]([m5C])p.d([m5C])[sp].d(A)[sp].d(T)[sp].d(T)[sp].d(T)[sp].d(T)[sp].d(G)[sp].d(A)[sp].d([m5C])[sp].d([m5C])[sp].[moe](T)p.[moe](T)[sp].[moe]([m5C])}$$$$ (last 3' nucleoside missing) | 1 score 0-7
8 | RNA1{[moe]([m5C])[sp].[moe](T)p.[moe]([m5C])p.[moe](A)p.[moe](G)[sp].d(T)[sp].d(T)[sp].d(A)[sp].d(G)[sp].d(G)[sp].d(T)[sp].d(T)[sp].d(A)[sp].[moe](G)p.[moe](T)p.[moe](G)[sp].[moe]([m5C])}$$$$ (last 3' nucleoside missing) | 1.3 score 0-7
9 | RNA1{[moe]([m5C])[sp].[moe](T)p.[moe]([m5C])p.[moe](A)p.d(G)[sp].d(T)[sp].d(T)[sp].d(A)[sp].d(G)[sp].d(G)[sp].d(T)[sp].d(T)[sp].d(A)[sp].d(G)[sp].[moe](T)p.[moe](G)p.[moe]([m5C])p.[moe](A)[sp].[moe]([m5C])}$$$$ (last 3' nucleoside missing) | 4 score 0-7
10 | RNA1{[moe](T)[sp].[moe]([m5C])p.[moe](A)p.[moe]([m5C])[sp].d([m5C])[sp].d(A)[sp].d(T)[sp].d(T)[sp].d(T)[sp].d(T)[sp].d(G)[sp].d(A)[sp].[moe]([m5C])p.[moe]([m5C])p.[moe](T)p.[moe](T)[sp].[moe]([m5C])}$$$$ (last 3' nucleoside missing) | 0.3 score 0-7
11 | RNA1{[moe](T)[sp].[moe](G)p.[moe](T)p.[moe](G)p.[moe](G)p.d(G)[sp].d([m5C])[sp].d([m5C])[sp].d(T)[sp].d([m5C])[sp].d(T)[sp].d(A)[sp].d(T)[sp].d(T)[sp].d(A)[sp].[moe](A)p.[moe](G)p.[moe](A)[sp].[moe](T)}$$$$ (last 3' nucleoside missing) | 1 score 0-7
12 | RNA1{[moe](T)[sp].[moe](A)p.[moe](G)p.[moe](G)p.d(T)[sp].d([m5C])[sp].d(A)[sp].d(A)[sp].d([m5C])[sp].d([m5C])[sp].d(A)[sp].d(A)[sp].d(T)[sp].d(T)[sp].[moe](T)p.[moe](G)p.[moe]([m5C])p.[moe](T)[sp].[moe](A)}$$$$ (last 3' nucleoside missing) | 0 score 0-7
13 | RNA1{[moe](G)[sp].[moe](G)p.[moe](A)p.[moe](G)p.[moe](A)p.d([m5C])[sp].d(A)[sp].d(A)[sp].d(T)[sp].d([m5C])[sp].d(T)[sp].d(A)[sp].d(G)[sp].d(T)[sp].d(T)[sp].[moe](A)p.[moe](G)p.[moe](A)[sp].[moe]([m5C])}$$$$ (last 3' nucleoside missing) | 4 score 0-7
14 | RNA1{[moe](G)[sp].[moe](G)p.[moe](T)p.[moe](A)p.[moe](A)p.d(G)[sp].d(G)[sp].d([m5C])[sp].d(A)[sp].d(G)[sp].d([m5C])[sp].d(T)[sp].d([m5C])[sp].d([m5C])[sp].d(T)[sp].[moe](G)p.[moe](A)p.[moe]([m5C])[sp].[moe](A)}$$$$ (last 3' nucleoside missing) | 1.3 score 0-7
15 | RNA1{[moe]([m5C])[sp].[moe]([m5C])p.[moe](T)p.[moe](A)p.[moe](T)p.d(A)[sp].d(G)[sp].d(G)[sp].d(T)[sp].d(G)[sp].d(G)[sp].d([m5C])[sp].d([m5C])[sp].d(T)[sp].d(T)[sp].[moe]([m5C])p.[moe](A)p.[moe](G)[sp].[moe](T)}$$$$ (last 3' nucleoside missing) | 5 score 0-7
16 | RNA1{[moe](G)[sp].[moe](A)p.[moe](T)p.[moe]([m5C])p.d(A)[sp].d([m5C])[sp].d(A)[sp].d(T)[sp].d(T)[sp].d(A)[sp].d([m5C])[sp].d([m5C])[sp].d([m5C])[sp].d(A)[sp].[moe](T)p.[moe]([m5C])p.[moe]([m5C])p.[moe](G)[sp].[moe](T)}$$$$ (last 3' nucleoside missing) | 0 score 0-7
17 | RNA1{[moe](T)[sp].[moe](G)p.[moe]([m5C])p.[moe](A)p.d(T)[sp].d(A)[sp].d([m5C])[sp].d([m5C])[sp].d([m5C])[sp].d(A)[sp].d(G)[sp].d(G)[sp].d(G)[sp].d(T)[sp].[moe](A)p.[moe](G)p.[moe](G)p.[moe](A)[sp].[moe](T)}$$$$ (last 3' nucleoside missing) | 1 score 0-7
18 | RNA1{[moe](G)[sp].[moe](G)p.[moe](T)p.[moe](A)p.[moe](G)p.d([m5C])[sp].d([m5C])[sp].d([m5C])[sp].d([m5C])[sp].d(A)[sp].d(A)[sp].d(T)[sp].d(A)[sp].d([m5C])[sp].d(A)[sp].[moe](G)p.[moe](A)p.[moe](T)[sp].[moe](T)}$$$$ (last 3' nucleoside missing) | 1 score 0-7
19 | RNA1{[moe](G)[sp].[moe]([m5C])p.[moe](T)p.[moe](G)[sp].d(A)[sp].d(T)[sp].d([m5C])[sp].d(A)[sp].d([m5C])[sp].d(A)[sp].d(T)[sp].d(T)[sp].[moe](A)p.[moe]([m5C])p.[moe]([m5C])p.[moe]([m5C])[sp].[moe](A)}$$$$ (last 3' nucleoside missing) | 0 score 0-7
20 | RNA1{[moe]([m5C])[sp].[moe](A)p.[moe](T)p.[moe](A)p.[moe](T)p.d(G)[sp].d(A)[sp].d(A)[sp].d(G)[sp].d([m5C])[sp].d(T)[sp].d(A)[sp].d(T)[sp].d(A)[sp].d(G)[sp].[moe](G)p.[moe](T)p.[moe](A)[sp].[moe]([m5C])}$$$$ (last 3' nucleoside missing) | 1 score 0-7
21 | RNA1{[moe](A)[sp].[moe](G)p.[moe](A)p.[moe](G)p.[moe](A)p.d([m5C])[sp].d([m5C])[sp].d(T)[sp].d([m5C])[sp].d(A)[sp].d(A)[sp].d(G)[sp].d(A)[sp].d([m5C])[sp].d([m5C])[sp].[moe](T)p.[moe](A)p.[moe](T)[sp].[moe](A)}$$$$ (last 3' nucleoside missing) | 3.8 score 0-7
22 | RNA1{[moe](A)[sp].[moe](T)p.[moe]([m5C])p.[moe](A)p.[moe](T)p.d(G)[sp].d(T)[sp].d(G)[sp].d([m5C])[sp].d(A)[sp].d(T)[sp].d(A)[sp].d([m5C])[sp].d([m5C])[sp].d([m5C])[sp].[moe](A)p.[moe](G)p.[moe](G)[sp].[moe](G)}$$$$ (last 3' nucleoside missing) | 0 score 0-7
23 | RNA1{[moe](A)[sp].[moe](A)p.[moe]([m5C])p.[moe](G)p.[moe]([m5C])p.[moe](A)p.d(A)[sp].d(T)[sp].d(G)[sp].d(T)[sp].d(A)[sp].d(T)[sp].d([m5C])[sp].d(A)[sp].d(G)[sp].d(G)[sp].[moe]([m5C])p.[moe](A)[sp].[moe](A)}$$$$ (last 3' nucleoside missing) | 4.7 score 0-7
24 | RNA1{[moe](T)[sp].[moe](G)p.[moe](G)p.[moe](G)p.[moe](T)p.d(T)[sp].d(A)[sp].d([m5C])[sp].d(T)[sp].d(T)[sp].d(T)[sp].d([m5C])[sp].d([m5C])[sp].d(A)[sp].d(A)[sp].[moe](T)p.[moe](A)p.[moe](G)[sp].[moe](A)}$$$$ (last 3' nucleoside missing) | 5.7 score 0-7
25 | RNA1{[moe](A)[sp].[moe](A)p.[moe]([m5C])p.[moe](A)p.[moe](A)p.d([m5C])[sp].d(G)[sp].d(G)[sp].d(T)[sp].d(T)[sp].d(G)[sp].d([m5C])[sp].d(A)[sp].d(G)[sp].d(G)[sp].[moe](G)p.[moe](A)p.[moe]([m5C])[sp].[moe](A)}$$$$ (last 3' nucleoside missing) | 6.8 score 0-7
26 | RNA1{[moe]([m5C])[sp].[moe](T)p.[moe](T)p.[moe]([m5C])p.[moe](A)p.d(T)[sp].d(T)[sp].d(A)[sp].d(T)[sp].d(T)[sp].d([m5C])[sp].d(T)[sp].d([m5C])[sp].d(T)[sp].d(A)[sp].[moe](G)p.[moe](T)p.[moe](G)[sp].[moe]([m5C])}$$$$ (last 3' nucleoside missing) | 0 score 0-7

From the OligoGym collection
